# From patent US8283291B2, “Herbicidal composition” (Kumiai Chemical Industry Co., Ltd., priority 2006, dated 2012)
# Experiments:
# common chickweed (STEME) [1] = experiment: Test 2 on herbicidal effects against weeds and phytotoxicity by upland soil treatment; type: in vivo, Stellaria media; conditions: 28th day
# Text: (§1) In a plastic pot of 14 cm in length×23 cm in width×8 cm in depth, upland soil was filled, and seeds of soybean (GLXMA), corn (ZEAMX), Ipomoea lacunosa L. (IPOLA) and velvetleaf (ABUTH) were sown and covered with soil. A wettable powder prepared in accordance with Formulation Example 1 was weighed so that the active ingredients became the prescribed amounts, diluted with water and uniformly applied to the soil surface by means of a small size spray at a rate of 500 liters per 1 hectare. Thereafter, cultivation was carried out in a greenhouse, and on the 28th day after the treatment, the herbicidal effects and phytotoxicity were examined in accordance with the standards as identified in Table 15.
# (§2) The test on herbicidal effects and phytotoxicity against wheat (TRZAW), common chickweed (STEME) and Persian speedwell (VERPE) was carried out in the same manner as the above Test Example 1.
# common chickweed (STEME) [2] = experiment: Test 4 on herbicidal effects against weeds and phytotoxicity by upland soil treatment; type: in vivo, Stellaria media; conditions: 28th day
# Text: as §1
# (§3) The test on herbicidal effects and phytotoxicity against wheat (TRZAW), italian ryegrass (LOLMU), common chickweed (STEME) and common lambsquater (CHEAL) was carried out in the same manner as the above Test Example 1.
# italian ryegrass (LOLMU) = experiment: as above; type: in vivo; conditions: 28th day
# Text: as §1, §3
# [3] = system: Persian speedwell (VERPE); experiment: Test 2 on herbicidal effects against weeds and phytotoxicity by upland soil treatment; type: in vivo; conditions: 28th day
# Text: as §1, §2
# barnyardgrass (ECHCG) = experiment: Test 3 on herbicidal effects against weeds and phytotoxicity by upland soil treatment; type: in vivo, Echinochloa crus-galli; conditions: 28th day
# Text: as §1
# (§4) The test on herbicidal effects and phytotoxicity against corn (ZEAMX), barnyardgrass (ECHCG), common chickweed (STEME) and common lambsquater (CHEAL) was carried out in the same manner as the above Test Example 1.
# common chickweed (STEME) [4] = experiment: as above; type: in vivo, Stellaria media; conditions: 28th day
# Text: as §1, §4
# [5] = system: common lambsquater (CHEAL); experiment: as above; type: in vivo, Chenopodium album; conditions: 28th day
# Text: as §1, §4
# corn (ZEAMX) [6] = experiment: Test on effects of reducing phytotoxicity against corn by upland soil treatment; type: in vivo; conditions: 21st day
# Description: In a plastic pot of 11 cm in length×11 cm in width×11 cm in depth, upland soil was filled, and seeds of corn (ZEAMX) were sown and covered with soil. A wettable powder prepared in accordance with Formulation Example 1 was weighed so that the active ingredients would be the prescribed amounts, diluted with water and uniformly applied to the soil surface by means of a small size spray at a rate of 500 liter per 1 hectare. Then, cultivation was carried out in a greenhouse, and on the 21st day after the treatment, the phytotoxicity against corn was examined in accordance with the standards as identified in Table 15.
# corn (ZEAMX) [7] = experiment: Test on herbicidal effects against weeds and phytotoxicity by foliage treatment in upland field; type: in vivo; conditions: 21st day
# Description: (§5) In a plastic pot of 11 cm in length×11 cm in width×11 cm in depth, the upland soil was filled, and seeds of corn (ZEAMX), soybean (GLXMA), greenfoxtail (SETVI), shattercane (SORVU), redroot pigweed (AMARE), Ipomoea lacunosa L. (IPOLA) and velvetleaf (ABUTH) were sown and covered with soil.
# (§6) Then, cultivation was carried out in a greenhouse for 10 days. Then, a wettable powder prepared in accordance with Formulation Example 1 was weighed so that active ingredients would be the prescribed amounts, […] spray at a rate of 500 liter per 1 hectare. Thereafter, cultivation was carried out in a greenhouse, and on the 21st day after the treatment, the herbicidal effects and phytotoxicity were examined in accordance with the standards as identified in Table 15.
# soybean (GLXMA) [8] = experiment: as above; type: in vivo; conditions: 21st day
# Description: as §5, §6
# soybean (GLXMA) [9] = experiment: Test 1 on herbicidal effects against weeds and phytotoxicity by upland soil treatment; type: in vivo; conditions: 28th day
# Description: (§7) In a plastic pot of 14 cm in length×23 cm in width×8 cm in depth, upland soil was filled, and seeds of soybean (GLXMA), corn (ZEAMX), Ipomoea lacunosa L. (IPOLA) and velvetleaf (ABUTH) were sown and covered with soil. […] Thereafter, cultivation was carried out in a greenhouse, and on the 28th day after the treatment, the herbicidal effects and phytotoxicity were examined in accordance with the standards as identified in Table 15.
# [10] = system: Ipomoea lacunosa L. (IPOLA); experiment: as above; type: in vivo; conditions: 400 gai/ha, 28th day
# Text: as §1
# velvetleaf (ABUTH) = experiment: as above; type: in vivo, Abutilon theophrasti; conditions: 400 gai/ha, 28th day
# Text: as §1
# corn (ZEAMX) [11] = experiment: as above; type: in vivo; conditions: 28th day
# Description: as §7
# wheat (TRZAW) [12] = experiment: Test 2 on herbicidal effects against weeds and phytotoxicity by upland soil treatment; type: in vivo; conditions: 28th day
# Text: as §1, §2
# wheat (TRZAW) [13] = experiment: Test 4 on herbicidal effects against weeds and phytotoxicity by upland soil treatment; type: in vivo; conditions: 1000 gai/ha, 28th day
# Text: as §1, §3
smiles,measurement,setting,value
"Cn1nc(C(F)(F)F)c(CS(=O)(=O)C2=NOC(C)(C)C2)c1OC(F)F [3-0054, 3-[(5-difluoromethoxy-1-methyl-3-trifluoromethylpyrazol-4-yl)methylsulfonyl]-4,5-dihydro-5,5-dimethylisoxazole]",herbicidal effect STEME,common chickweed (STEME) [1]; 18.8 gai/ha,5 (Herbicidal effect or phytotoxicity of at least 50% and less than 60%)
same,herbicidal effect STEME,common chickweed (STEME) [2]; 50 gai/ha,4 (Herbicidal effect or phytotoxicity of at least 40% and less than 50%)
same,herbicidal effect LOLMU,italian ryegrass (LOLMU); 50 gai/ha,8 (Herbicidal effect or phytotoxicity of at least 80% and less than 90%)
same,herbicidal effect VERPE,[3]; 18.8 gai/ha,7 (Herbicidal effect or phytotoxicity of at least 70% and less than 80%)
same,herbicidal effect ECHCG,barnyardgrass (ECHCG); 62.5 gai/ha,10 (Herbicidal effect or phytotoxicity of 100%)
same,herbicidal effect STEME,common chickweed (STEME) [4]; 62.5 gai/ha,5 (Herbicidal effect or phytotoxicity of at least 50% and less than 60%)
same,herbicidal effect CHEAL,[5]; 62.5 gai/ha,4 (Herbicidal effect or phytotoxicity of at least 40% and less than 50%)
CCNc1nc(Cl)nc(NC(C)C)n1 [Atrazine],phytotoxicity against corn ZEAMX,corn (ZEAMX) [6]; 2500 gai/ha,0 (Herbicidal effect or phytotoxicity of at least 0% and less than 10%)
CC1COc2ccccc2N1C(=O)C(Cl)Cl (stereo not shown) [Benoxacor],phytotoxicity against corn ZEAMX,corn (ZEAMX) [6]; 50 gai/ha,0 (Herbicidal effect or phytotoxicity of at least 0% and less than 10%)
CC(C)N1C(=O)c2ccccc2NS1(=O)=O [Bentazone],phytotoxicity ZEAMX,corn (ZEAMX) [7]; 400 gai/ha,0 (Herbicidal effect or phytotoxicity of at least 0% and less than 10%)
same,phytotoxicity GLXMA,soybean (GLXMA) [8]; 400 gai/ha,0 (Herbicidal effect or phytotoxicity of at least 0% and less than 10%)
C[C@H](NC(=O)[C@H](C)NC(=O)[C@@H](N)CCP(C)(=O)O)C(=O)O [Bilanafos],phytotoxicity ZEAMX,corn (ZEAMX) [7]; 1000 gai/ha,9 (Herbicidal effect or phytotoxicity of at least 90% and less than 100%)
same,phytotoxicity GLXMA,soybean (GLXMA) [8]; 1000 gai/ha,9 (Herbicidal effect or phytotoxicity of at least 90% and less than 100%)
COc1cc(OC)nc(Oc2cccc(Oc3nc(OC)cc(OC)n3)c2C(=O)O)n1 [Bispyribac-sodium],phytotoxicity ZEAMX,corn (ZEAMX) [7]; 12.5 gai/ha,0 (Herbicidal effect or phytotoxicity of at least 0% and less than 10%)
same,phytotoxicity GLXMA,soybean (GLXMA) [8]; 12.5 gai/ha,9 (Herbicidal effect or phytotoxicity of at least 90% and less than 100%)
CCOC(=O)c1ccccc1S(=O)(=O)NC(=O)Nc1nc(Cl)cc(OC)n1 [Chlorimuron-ethyl],phytotoxicity ZEAMX,corn (ZEAMX) [7]; 6.3 gai/ha,4 (Herbicidal effect or phytotoxicity of at least 40% and less than 50%)
same,phytotoxicity GLXMA,soybean (GLXMA) [8]; 6.3 gai/ha,0 (Herbicidal effect or phytotoxicity of at least 0% and less than 10%)
CC1(C)CON(Cc2ccccc2Cl)C1=O [Clomazone],phytotoxicity GLXMA,soybean (GLXMA) [9]; 200 gai/ha,0 (Herbicidal effect or phytotoxicity of at least 0% and less than 10%)
COC[C@H](C)N(C(=O)CCl)c1c(C)csc1C [Dimethenamid-P],herbicidal effect IPOLA,[10],5 (Herbicidal effect or phytotoxicity of at least 50% and less than 60%)
same,herbicidal effect ABUTH,velvetleaf (ABUTH),7 (Herbicidal effect or phytotoxicity of at least 70% and less than 80%)
CN(C)C(=O)Nc1ccc(Cl)c(Cl)c1 [Diuron],phytotoxicity ZEAMX,corn (ZEAMX) [11]; 800 gai/ha,8 (Herbicidal effect or phytotoxicity of at least 80% and less than 90%)
same,phytotoxicity GLXMA,soybean (GLXMA) [9]; 800 gai/ha,8 (Herbicidal effect or phytotoxicity of at least 80% and less than 90%)
COC(=O)CSc1cc(/N=c2\sc(=O)n3n2CCCC3)c(F)cc1Cl [Fluthiacet-methyl],phytotoxicity ZEAMX,corn (ZEAMX) [7]; 10 gai/ha,0 (Herbicidal effect or phytotoxicity of at least 0% and less than 10%)
same,phytotoxicity GLXMA,soybean (GLXMA) [8]; 10 gai/ha,0 (Herbicidal effect or phytotoxicity of at least 0% and less than 10%)
CC(C)c1ccc(NC(=O)N(C)C)cc1 [Isoproturon],herbicidal effect STEME,common chickweed (STEME) [1]; 375 gai/ha,6 (Herbicidal effect or phytotoxicity of at least 60% and less than 70%)
same,herbicidal effect VERPE,[3]; 375 gai/ha,5 (Herbicidal effect or phytotoxicity of at least 50% and less than 60%)
CNc1cnn(-c2cccc(C(F)(F)F)c2)c(=O)c1Cl [Norflurazon],phytotoxicity ZEAMX,corn (ZEAMX) [11]; 400 gai/ha,9 (Herbicidal effect or phytotoxicity of at least 90% and less than 100%)
same,phytotoxicity GLXMA,soybean (GLXMA) [9]; 400 gai/ha,1 (Herbicidal effect or phytotoxicity of at least 10% and less than 20%)
C[n+]1ccc(-c2cc[n+](C)cc2)cc1 [Paraquat],phytotoxicity ZEAMX,corn (ZEAMX) [7]; 500 gai/ha,6 (Herbicidal effect or phytotoxicity of at least 60% and less than 70%)
same,phytotoxicity GLXMA,soybean (GLXMA) [8]; 500 gai/ha,10 (Herbicidal effect or phytotoxicity of 100%)
O=C(Nc1ccc(F)cc1)c1cccc(Oc2cccc(C(F)(F)F)c2)n1 [Picolinafen],herbicidal effect STEME,common chickweed (STEME) [1]; 16 gai/ha,5 (Herbicidal effect or phytotoxicity of at least 50% and less than 60%)
same,phytotoxicity TRZAW,wheat (TRZAW) [12]; 16 gai/ha,0 (Herbicidal effect or phytotoxicity of at least 0% and less than 10%)
same,herbicidal effect VERPE,[3]; 16 gai/ha,6 (Herbicidal effect or phytotoxicity of at least 60% and less than 70%)
CCCN(CCC)C(=O)SCc1ccccc1 [Prosulfocarb],herbicidal effect ECHCG,barnyardgrass (ECHCG); 1600 gai/ha,2 (Herbicidal effect or phytotoxicity of at least 20% and less than 30%)
same,herbicidal effect STEME,common chickweed (STEME) [4]; 1600 gai/ha,5 (Herbicidal effect or phytotoxicity of at least 50% and less than 60%)
same,herbicidal effect CHEAL,[5]; 1600 gai/ha,5 (Herbicidal effect or phytotoxicity of at least 50% and less than 60%)
CCOC(=O)C(C)Oc1ccc(Oc2cnc3cc(Cl)ccc3n2)cc1 (stereo not shown) [Quizalofop-ethyl],phytotoxicity ZEAMX,corn (ZEAMX) [7]; 25 gai/ha,10 (Herbicidal effect or phytotoxicity of 100%)
same,phytotoxicity GLXMA,soybean (GLXMA) [8]; 25 gai/ha,0 (Herbicidal effect or phytotoxicity of at least 0% and less than 10%)
CCC/C(=N\OCC)C1=C(O)CC(CC(C)SCC)CC1=O (stereo not shown) [Sethoxydim],phytotoxicity ZEAMX,corn (ZEAMX) [7]; 100 gai/ha,9 (Herbicidal effect or phytotoxicity of at least 90% and less than 100%)
same,phytotoxicity GLXMA,soybean (GLXMA) [8]; 100 gai/ha,0 (Herbicidal effect or phytotoxicity of at least 0% and less than 10%)
CS(=O)(=O)c1ccc(C(=O)C2C(=O)CCCC2=O)c(Cl)c1 [Sulcotrione],phytotoxicity against corn ZEAMX,corn (ZEAMX) [6]; 1000 gai/ha,1 (Herbicidal effect or phytotoxicity of at least 10% and less than 20%)
same,phytotoxicity ZEAMX,corn (ZEAMX) [7]; 25 gai/ha,0 (Herbicidal effect or phytotoxicity of at least 0% and less than 10%)
same,phytotoxicity GLXMA,soybean (GLXMA) [8]; 25 gai/ha,6 (Herbicidal effect or phytotoxicity of at least 60% and less than 70%)
CC(C)N(C(=O)SCC(Cl)=C(Cl)Cl)C(C)C [Triallate],herbicidal effect STEME,common chickweed (STEME) [2]; 1000 gai/ha,2 (Herbicidal effect or phytotoxicity of at least 20% and less than 30%)
same,phytotoxicity TRZAW,wheat (TRZAW) [13],0 (Herbicidal effect or phytotoxicity of at least 0% and less than 10%)
same,herbicidal effect LOLMU,italian ryegrass (LOLMU); 1000 gai/ha,2 (Herbicidal effect or phytotoxicity of at least 20% and less than 30%)
CCCN(CCC)c1c([N+](=O)[O-])cc(C(F)(F)F)cc1[N+](=O)[O-] [Trifluralin],herbicidal effect STEME,common chickweed (STEME) [1]; 250 gai/ha,10 (Herbicidal effect or phytotoxicity of 100%)
same,phytotoxicity TRZAW,wheat (TRZAW) [12]; 250 gai/ha,0 (Herbicidal effect or phytotoxicity of at least 0% and less than 10%)
same,herbicidal effect VERPE,[3]; 250 gai/ha,7 (Herbicidal effect or phytotoxicity of at least 70% and less than 80%)
